target: T1, human glucocorticoid receptor (Homo sapiens, UniProt P04150); assay: Glucocorticoid Receptor Binding Assay (I), fluorescence polarization competitor kit; conditions: purified human recombinant full-length GR, Fluormone GS Red
T1 construct: purified human recombinant full-length glucocorticoid receptor (2 nM); purchased Invitrogen Part #2893
T1 sequence (P04150 1-777): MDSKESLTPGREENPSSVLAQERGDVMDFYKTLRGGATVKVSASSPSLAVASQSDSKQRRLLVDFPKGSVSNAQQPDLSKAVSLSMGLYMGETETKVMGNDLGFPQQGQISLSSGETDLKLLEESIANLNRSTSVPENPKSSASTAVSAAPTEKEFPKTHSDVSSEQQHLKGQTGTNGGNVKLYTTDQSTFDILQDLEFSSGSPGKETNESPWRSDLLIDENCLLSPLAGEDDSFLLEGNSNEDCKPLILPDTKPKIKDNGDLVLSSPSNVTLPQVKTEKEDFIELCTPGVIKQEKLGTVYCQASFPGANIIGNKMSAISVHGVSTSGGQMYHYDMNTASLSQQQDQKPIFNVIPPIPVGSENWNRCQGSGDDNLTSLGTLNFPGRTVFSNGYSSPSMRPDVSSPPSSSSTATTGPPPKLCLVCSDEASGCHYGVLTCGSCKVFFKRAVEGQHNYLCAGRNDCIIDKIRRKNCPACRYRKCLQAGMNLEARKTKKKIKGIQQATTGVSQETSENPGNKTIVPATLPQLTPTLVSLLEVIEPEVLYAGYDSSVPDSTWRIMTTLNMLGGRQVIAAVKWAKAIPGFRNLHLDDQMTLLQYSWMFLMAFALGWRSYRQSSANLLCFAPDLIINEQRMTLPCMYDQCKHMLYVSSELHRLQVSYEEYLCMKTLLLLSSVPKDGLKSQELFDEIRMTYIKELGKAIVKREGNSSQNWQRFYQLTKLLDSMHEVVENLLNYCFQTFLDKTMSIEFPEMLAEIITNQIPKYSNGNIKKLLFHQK
Procedure: Glucocorticoid Receptor Binding Assay (I)^a
In order to assess the affinity of test compounds for the human glucocorticoid receptor, a commercially available kit was used (Glucocorticoid Receptor Competitor Assay Kit, Invitrogen Part #2893). Briefly, purified human recombinant full-length glucocorticoid receptor (2 nM) was mixed with fluorescently labeled glucocorticoid (1 nM Fluormone GS Red) in the presence or absence of test compound. After two hour incubation at room temperature in the dark, the fluorescence polarization (FP) of the samples was measured. The FP of a mixture of receptor, fluorescent probe (i.e. Fluormone GS Red) and 5 μM dexamethasone represented background fluorescence or 100% inhibition, whereas, the FP of the mixture without dexamethasone (but in the presence of vehicle) was taken to be 100% binding. The percentage inhibition of test compounds were then compared to the sample with 5 μM dexamethasone and expressed as % relative binding activity with dexamethasone being 100% and no inhibition is 0%. Test compounds were analyzed in the concentration range from 8.5E-05 μM to 5 μM.

Structure (SMILES) | Ki
COC(=O)c1ccc(-c2ccc(C(c3ccccc3)C(C)(C)C(=O)Nc3nncs3)s2)cc1F (stereo not drawn) [Example 53, methyl 4-(5-(2,2-dimethyl-3-oxo-1-phenyl-3-(1,3,4-thiadiazol-2-ylamino)propyl)-2-thienyl)-2-fluorobenzoate] | 152 nM
CC(C)(C(=O)Nc1nncs1)C(c1ccccc1)c1ccc(-c2ccc(C(=O)N3CCC(F)(F)CC3)cc2)s1 (stereo not drawn) [Example 55, 3-(5-(4-((4,4-Difluoro-1-piperidinyl)carbonyl)phenyl)-2-thienyl)-2,2-dimethyl-3-phenyl-N-1,3,4-thiadiazol-2-ylpropanamide] | 36.8 nM
CC(C)(C(=O)Nc1nncs1)[C@H](c1cccc(F)c1)c1ccc(Br)s1 [Example 56, (3S)-3-(5-bromo-2-thienyl)-3-(3-fluorophenyl)-2,2-dimethyl-N-1,3,4-thiadiazol-2-ylpropanamide] | 1.21 nM
CC(C)(C(=O)Nc1nncs1)[C@@H](c1cccc(F)c1)c1ccc(Br)s1 [Example 57, (3R)-3-(5-bromo-2-thienyl)-3-(3-fluorophenyl)-2,2-dimethyl-N-1,3,4-thiadiazol-2-ylpropanamide] | 2.39 nM
CN(C)C(=O)c1ccc(-c2ccc([C@@H](c3cccc(F)c3)C(C)(C)C(=O)Nc3nncs3)s2)cc1 [Example 58, 4-(5-((1S)-1-(3-fluorophenyl)-2,2-dimethyl-3-oxo-3-(1,3,4-thiadiazol-2-ylamino)propyl)-2-thienyl)-N,N-dimethylbenzamide] | 29.2 nM
CC(C)(C(=O)Nc1nncs1)[C@H](c1cccc(F)c1)c1ccc(-c2ccc(C(=O)N3CCOCC3)cc2)s1 [Example 59, (3S)-3-(3-fluorophenyl)-2,2-dimethyl-3-(5-(4-(4-morpholinylcarbonyl)phenyl)-2-thienyl)-N-1,3,4-thiadiazol-2-ylpropanamide] | 66.9 nM
CN(C)C(=O)c1ccc(-c2ccc([C@@H](c3cccc(F)c3)C(C)(C)C(=O)Nc3nncs3)s2)cc1Cl [Example 60, 2-chloro-4-(5-((1S)-1-(3-fluorophenyl)-2,2-dimethyl-3-oxo-3-(1,3,4-thiadiazol-2-ylamino)propyl)-2-thienyl)-N,N-dimethylbenzamide] | 161 nM

Other lines, results leading:

Ki | Structure (SMILES)
101 nM | CC(C)(C(=O)Nc1nncs1)[C@H](c1cccc(F)c1)c1ccc(-c2ccc(C(=O)N3CCOCC3)c(Cl)c2)s1 [Example 61, (3S)-3-(5-(3-chloro-4-(4-morpholinylcarbonyl)phenyl)-2-thienyl)-3-(3-fluorophenyl)-2,2-dimethyl-N-1,3,4-thiadiazol-2-ylpropanamide]
87.6 nM | CCN(C)C(=O)c1ccc(-c2ccc([C@@H](c3cccc(F)c3)C(C)(C)C(=O)Nc3nncs3)s2)cc1 [Example 62, N-ethyl-4-(5-((1S)-1-(3-fluorophenyl)-2,2-dimethyl-3-oxo-3-(1,3,4-thiadiazol-2-ylamino)propyl)-2-thienyl)-N-methylbenzamide]
565 nM | CC(C)(C(=O)Nc1nncs1)[C@H](c1cccc(F)c1)c1ccc(-c2ccc(C(=O)O)c(F)c2)s1 [Example 63, 2-fluoro-4-(5-((1S)-1-(3-fluorophenyl)-2,2-dimethyl-3-oxo-3-(1,3,4-thiadiazol-2-ylamino)propyl)-2-thienyl)benzoic acid]
1.03 nM | CCN(CC)C(=O)c1ccc(-c2ccc([C@H](c3cccc(F)c3)C(C)(C)C(=O)Nc3nncs3)s2)cc1 [Example 69, N,N-diethyl-4-(5-((1R)-1-(3-fluorophenyl)-2,2-dimethyl-3-oxo-3-(1,3,4-thiadiazol-2-ylamino)propyl)-2-thienyl)benzamide]
1.51 nM | CC(C)(C(=O)Nc1nncs1)[C@@H](c1cccc(F)c1)c1ccc(-c2ccc(C(=O)N3CCCCC3)cc2)s1 [Example 71, (3R)-3-(3-fluorophenyl)-2,2-dimethyl-3-(5-(4-(1-piperidinylcarbonyl)phenyl)-2-thienyl)-N-1,3,4-thiadiazol-2-ylpropanamide]
